Test system: heart rhythm of a patient
Experiment: Clinical data: oral levosimendan in a patient with wandering atrial pacemaker, first degree AV block, junctional rhythm
Type: in vivo, human
Method: The underlying heart rhythm of a patient on intravenous milrinone was wandering atrial pacemaker with a first degree AV block alternating with a junctional rhythm and sinus rhythm. The overall heart rate was around 70 bpm. Because of failure to wean the milrinone the patient was entered into oral levosimendan first at 1 mg followed by 2 mg and subsequently by 4 mg qd. […] Their levosimendan dose was reduced to 2 mg and maintained at that dose during the taper of intravenous milrinone. […] Milrinone was tapered off and the patient could be transferred out of the intensive care unit. The patient's dose of levosimendan was continued at 1 mg three times a day.

CC1CC(=O)NN=C1c1ccc(NN=C(C#N)C#N)cc1 (single isomer, unassigned; (-)) [levosimendan, (−)-[[4-(1,4,5,6-tetrahydro-4-methyl-6-oxo-3-pyridazinyl)phenyl]hydrazono]propanedinitrile]
cardiac rhythm (levosimendan 2 mg during taper of intravenous milrinone): regularize with a vast majority of the beats being sinus node in origin | overall heart rate (levosimendan dose reduced to 2 mg, maintained during taper of intravenous milrinone): 80-85 bpm | heart rate (oral levosimendan 1 mg, then 2 mg, then 4 mg qd, patient on intravenous milrinone, baseline around 70 bpm): over 90 bpm
